11 molecules from ChEMBL document CHEMBL1201862, “PubChem BioAssay data set” (2004) can be followed below.

The structures appear in SMILES notation.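 Briefly, cells in 96-well plates were exposed to five compound concentrations for 48 h, and endpoints were estimated by linear interpolation. GI50 is the concentration that inhibits growth by half.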 Active and inactive are the calls of the source. No stated cut-off is given here; in the data, active = GI50 up to about 1.1 µM and inactive = higher.

Holding throughout (assay): inhibition of tumour cell growth, NCI panel, 48 h
Assay [1] concerns A549.
Assay [2] has as its system ACHN.
Assay [3] relates to CAKI-1.
Assay [4] concerns CCRF-CEM.
For assay [5], the system named is DU-145.
The subject of assay [6] is HOP-62.
Assay [7] concerns HOP-92.
Assay [8] relates to LOX IMVI.
Assay [9] relates to M14.
The subject of assay [10] is MDA-N.
Assay [11] has as its system Malme-3M.
For assay [12], the system named is OVCAR-3.
Assay [13] has as its system SF-268.
Assay [14] relates to SK-MEL-28.
Assay [15] deals with SK-MEL-2.
Assay [16] concerns SK-OV-3.
For assay [17], the system named is SR.
Assay [18] has as its system UO-31.
Assay [19] concerns A498.
Assay [20] has as its system SK-MEL-5.

Take `O=C1NC(N2CCOCC2)=N/C1=C\c1ccc(Cl)cc1`: the GI50 in assay [1], in [2], in [3], in assay [4], in assay [5] and in assay [6] was > 100 µM (inactive) each time. Further, the GI50 in [7], in [8], in assay [9], in assay [10], in [11] and in assay [12] was > 100 µM (inactive) in each case. Besides, the GI50 in assay [13], in [14], in [15], in assay [16], in [17] and in [18] was > 100 µM (inactive) each time.

As for `CC(C)N1[C@@H]2CCCC[C@H]2N(C(C)C)[PH]1=O`, the GI50 in [19], in assay [1], in assay [2], in assay [3], in assay [4] and in assay [5] was > 100 µM (inactive) each time. For the same molecule, the GI50 in assay [6], in assay [7], in [9], in [10], in [12] and in [13] was > 100 µM (inactive) each time. The GI50 in assay [20], in [16], in assay [17] and in assay [18] was > 100 µM (inactive) in each case.

Take `CC(C)(C)Cc1cc(O)ccc1O`: the GI50 was > 100 µM (inactive) in assay [19]; 58.9 µM (inactive) in assay [1]; 86.1 µM (inactive) in assay [2]; > 100 µM (inactive) in assay [3]; 26.5 µM (inactive) in assay [4]; > 100 µM (inactive) in assay [5]. The GI50 in assay [6] was > 100 µM (inactive); in assay [7] it was > 100 µM (inactive); in [8] it was 60.3 µM (inactive); in assay [9], 46.2 µM (inactive); in assay [10] it was 43.2 µM (inactive); in assay [11] it was > 100 µM (inactive). The GI50 in [12] is 39.3 µM (inactive); in assay [13], 87.9 µM (inactive); in [14], > 100 µM (inactive); in [16], > 100 µM (inactive); in assay [17] it was 24 µM (inactive); in assay [18] it was > 100 µM (inactive).

`Cc1ccc2[nH]c(=O)c(-c3cnc(O)nn3)c(O)c2c1`: the GI50 in assay [19] is > 100 µM (inactive); in [1] it was 32 µM (inactive); in [2], 19.7 µM (inactive); in assay [3], 55.3 µM (inactive); in assay [4] it was > 100 µM (inactive); in assay [5] it was > 100 µM (inactive). Besides, the GI50 in [6] was > 100 µM (inactive); in assay [8] it was > 100 µM (inactive); in assay [9], > 100 µM (inactive); in [10], 17.7 µM (inactive); in [11] it was > 100 µM (inactive); in assay [12] it was 58.1 µM (inactive). Besides, the GI50 in assay [13] is > 100 µM (inactive); in assay [14], > 100 µM (inactive); in assay [15] it was 45 µM (inactive); in [20], 11.8 µM (inactive); in assay [16], > 100 µM (inactive); in assay [17], > 100 µM (inactive). The GI50 in [18] was 16.6 µM (inactive).

For the molecule `COc1cc(/C=C/C=C2\CCC/C(=C\C=C\c3ccc(O)c(OC)c3)C2=O)ccc1O`, the GI50 in assay [1] was 4.85 µM (inactive); in assay [2], 4.08 µM (inactive); in [3], 7.23 µM (inactive); in assay [4], 0.991 µM (active); in [5], 14.7 µM (inactive); in [6], 17.3 µM (inactive). Besides, the GI50 was 12 µM (inactive) in assay [7]; 7.91 µM (inactive) in assay [8]; 18.2 µM (inactive) in [9]; 3.91 µM (inactive) in [10]; 10.6 µM (inactive) in assay [11]; 9.12 µM (inactive) in assay [12]. Further, the GI50 is 5.53 µM (inactive) in [13]; 12.6 µM (inactive) in [14]; 21.2 µM (inactive) in assay [15]; 10.3 µM (inactive) in assay [20]; 5.81 µM (inactive) in assay [16]; 1.69 µM (inactive) in [17]. Besides, the GI50 in assay [18] is 12 µM (inactive).

Consider `CCC(=O)OCc1ccc2oc(=O)c(C(=O)Oc3cncc(Cl)c3)cc2c1`, for which the GI50 in assay [1] was > 100 µM (inactive); in assay [2] it was > 100 µM (inactive); in assay [3] it was > 100 µM (inactive); in assay [4], < 0.01 µM (active); in assay [5] it was > 100 µM (inactive); in assay [6], > 100 µM (inactive). Moreover, the GI50 is 63.2 µM (inactive) in assay [7]; > 100 µM (inactive) in [8]; > 100 µM (inactive) in assay [9]; > 100 µM (inactive) in [10]; 66.7 µM (inactive) in assay [11]; > 100 µM (inactive) in assay [12]. The GI50 in [13] is > 100 µM (inactive); in assay [14] it was > 100 µM (inactive); in assay [15], > 100 µM (inactive); in [20] it was > 100 µM (inactive); in assay [16], > 100 µM (inactive); in assay [17], 20.8 µM (inactive). Further, the GI50 in assay [18] is 83.8 µM (inactive).

With `CC(=O)OC1CC[C@]2(C)C3CC[C@@]4(C)C(CCC4[C@H](C)CCCC(C)C)[C@@H]3CCC2(Br)C1` (stereo not given in full), the GI50 in [19] was 8.13 µM (inactive); in assay [1], 19.8 µM (inactive); in assay [2], 9.91 µM (inactive); in assay [3] it was 9.1 µM (inactive); in [4] it was 10.2 µM (inactive); in [5], > 50 µM (inactive). For the same molecule, the GI50 in assay [6] is > 50 µM (inactive); in assay [7], 19.7 µM (inactive); in assay [8], 11.6 µM (inactive); in assay [9], 18.5 µM (inactive); in assay [10], 20.1 µM (inactive); in [11], 10.9 µM (inactive). Moreover, the GI50 in [12] was 14.5 µM (inactive); in assay [13], 11.7 µM (inactive); in [14], 7.91 µM (inactive); in assay [16], > 50 µM (inactive); in assay [17], 9.44 µM (inactive); in assay [18], 14 µM (inactive).

On to `COC(=O)[C@H](C)N1C(=O)N[C@@H](C(C)C)C1=O`, for which the GI50 in [1], in [2], in assay [3], in [4], in [5] and in assay [6] was > 100 µM (inactive) each time. Moreover, the GI50 in assay [7], in assay [8], in [9], in assay [10], in [11] and in assay [12] was > 100 µM (inactive) throughout. Also, the GI50 in assay [14], in [15], in assay [20], in assay [16], in assay [17] and in assay [18] was > 100 µM (inactive) in each case.

Consider `Cc1oc2c(cc(O)c3ccccc32)c2cccc1-2`, for which the GI50 in assay [19] is > 100 µM (inactive); in assay [1] it was > 100 µM (inactive); in assay [2], > 100 µM (inactive); in [3], > 100 µM (inactive); in assay [4], > 100 µM (inactive); in assay [5], 36.1 µM (inactive). For the same molecule, the GI50 in assay [6] was > 100 µM (inactive); in assay [7], > 100 µM (inactive); in assay [8], > 100 µM (inactive); in assay [9], 24.1 µM (inactive); in assay [10], > 100 µM (inactive); in [11], > 100 µM (inactive). The GI50 in [12], in [13], in [14], in assay [20], in assay [16] and in [17] was > 100 µM (inactive) each time.

`CC(C)[C@@H]1CC[C@@H](C)C[C@H]1OC(=O)/C=C1\C(C(=O)O[C@@H]2C[C@H](C)CC[C@H]2C(C)C)[C@H]2C=C[C@@H]1O2` (stereo not given in full): the GI50 was > 100 µM (inactive) in [19]; 80.2 µM (inactive) in [1]; 27.1 µM (inactive) in assay [2]; > 100 µM (inactive) in assay [3]; 23.4 µM (inactive) in [4]; 57.9 µM (inactive) in [5]. Moreover, the GI50 in [6] was > 100 µM (inactive); in assay [7], 63 µM (inactive); in assay [8], 34.1 µM (inactive); in assay [9] it was 89.5 µM (inactive); in assay [10], 83.6 µM (inactive); in assay [11], > 100 µM (inactive). Besides, the GI50 is 38.3 µM (inactive) in assay [12]; 76.4 µM (inactive) in assay [13]; > 100 µM (inactive) in assay [14]; 40.4 µM (inactive) in [20]; > 100 µM (inactive) in assay [16]; 43 µM (inactive) in assay [17]. The GI50 in assay [18] is > 100 µM (inactive).

`Clc1ccc(/C=C/c2nc(-c3ccccc3)cn3c2nc2ccccc23)cc1Cl`: the GI50 in assay [19] was > 100 µM (inactive); in assay [1], 59.6 µM (inactive); in assay [2], 49.5 µM (inactive); in [4], 20.1 µM (inactive); in assay [5], > 100 µM (inactive); in assay [6], 59.2 µM (inactive). Besides, the GI50 in [7] is 70 µM (inactive); in [8], 59.8 µM (inactive); in assay [9], 56.4 µM (inactive); in assay [10] it was 60 µM (inactive); in assay [12], 31.9 µM (inactive); in assay [13], 59 µM (inactive). Further, the GI50 in assay [14] is 65.8 µM (inactive); in [15], > 100 µM (inactive); in assay [20], 50.2 µM (inactive); in assay [16], > 100 µM (inactive); in assay [17] it was 33.7 µM (inactive); in assay [18], 58.1 µM (inactive).
